Legend:
FbPrnB [1] = target: T1, FbPrnB (Flavobacteriales bacterium, UniProt A0AC62AEF3); test: X-ray crystal structure of the binary complex; format: binding
T1 construct: N-terminal His-tag
T1 sequence (A0AC62AEF3 1-350): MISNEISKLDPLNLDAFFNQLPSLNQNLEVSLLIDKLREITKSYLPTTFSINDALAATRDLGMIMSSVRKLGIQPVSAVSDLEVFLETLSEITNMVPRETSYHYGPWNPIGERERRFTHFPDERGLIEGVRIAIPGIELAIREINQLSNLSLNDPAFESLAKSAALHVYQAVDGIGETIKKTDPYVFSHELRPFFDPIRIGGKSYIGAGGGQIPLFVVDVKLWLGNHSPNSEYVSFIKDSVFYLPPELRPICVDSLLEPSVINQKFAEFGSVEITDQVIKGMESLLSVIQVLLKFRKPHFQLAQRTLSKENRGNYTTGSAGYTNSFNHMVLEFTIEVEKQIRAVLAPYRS

PsPrnB [2] = target: T2, PsPrnB; test: UV-visible absorption titration of the ferric enzyme; resonance Raman; format: binding, Pseudomonas sp. ADAK18
T2 construct: gene prnB; N-terminal His6-tag (TEV-cleavable)

FbPrnB [3] = target: T1, FbPrnB; test: X-ray crystal structure of the binary complex ([…] and […] occupancy); format: binding
PsPrnB [4] = target: T2, PsPrnB; test: UV-visible absorption titration of the ferric enzyme; EPR; resonance Raman; format: binding, Pseudomonas sp. ADAK18
FbPrnB [5] = target: T1, FbPrnB; test: X-ray crystal structure of the binary complex; UV-visible; resonance Raman; format: binding

SMILES	X-ray crystal structure of the binary complex (FbPrnB [1])	Kd (PsPrnB [2]) [µM]	X-ray crystal structure of the binary complex (75% and 90% occupancy) (FbPrnB [3])	Kd (PsPrnB [4]) [µM]	X-ray crystal structure of the binary complex; UV-visible; resonance Raman (FbPrnB [5])
N[C@@H](Cc1c[nH]c2c(Cl)cccc12)C(=O)O [7-Cl-Trp, 7-chloro-L-tryptophan]	binding conformations of 7-Cl-Trp and Trp are nearly identical (Fig. S7A), with the amino group directly coordinating to the iron center	1.9	–	–	–
NCCc1c[nH]c2ccccc12 [TAM, tryptamine]	–	–	The amine tail is flexible and adopts two distinct conformations in Chain A (Fig. 5D), with one remaining in coordination	411	–
N[C@@H](Cc1c[nH]c2ccccc12)C(=O)O [Trp, L-tryptophan]	–	–	–	4.1	binding conformations of 7-Cl-Trp and Trp are nearly identical (Fig. S7A), with the amino group directly coordinating to the iron center
O=C(O)CCc1c[nH]c2ccccc12 [IDPA, 3-indolepropionic acid]	The structure of the IDPA-bound complex aligns well with our spectroscopic data, confirming that IDPA does not directly interact with the iron	–	–	9.1	–

Source: publication PMC11791213, “Elucidating ligand interactions and small-molecule activation in the pyrrolnitrin biosynthetic enzyme PrnB” (The Journal of Biological Chemistry, 2024)
